Converted amounts (≈) assume the structure as drawn. “And” between values parts separate entries of the source, which are not always exact repeats. Equal entries are not always repeated. Where two headings read alike, the source gives them in different places. Values belong to the compound of their own block, whether it stands above or below them.
How the values were obtained:
[1] = target: T1, NIS (Rattus norvegicus, UniProt Q63008); assay: NIS-inhibition assay (iodide uptake, Sandell–Kolthoff reaction) on FRTL-5; format: cell-based; conditions: mean ± SD, ≥ 3 independent experiments; 2 h exposure; SK reaction
T1 construct: the endogenously NIS-expressing rat FRTL-5 cell line; host or cells: FRTL-5 (CVCL_0265)
T1 sequence (Q63008 1-618): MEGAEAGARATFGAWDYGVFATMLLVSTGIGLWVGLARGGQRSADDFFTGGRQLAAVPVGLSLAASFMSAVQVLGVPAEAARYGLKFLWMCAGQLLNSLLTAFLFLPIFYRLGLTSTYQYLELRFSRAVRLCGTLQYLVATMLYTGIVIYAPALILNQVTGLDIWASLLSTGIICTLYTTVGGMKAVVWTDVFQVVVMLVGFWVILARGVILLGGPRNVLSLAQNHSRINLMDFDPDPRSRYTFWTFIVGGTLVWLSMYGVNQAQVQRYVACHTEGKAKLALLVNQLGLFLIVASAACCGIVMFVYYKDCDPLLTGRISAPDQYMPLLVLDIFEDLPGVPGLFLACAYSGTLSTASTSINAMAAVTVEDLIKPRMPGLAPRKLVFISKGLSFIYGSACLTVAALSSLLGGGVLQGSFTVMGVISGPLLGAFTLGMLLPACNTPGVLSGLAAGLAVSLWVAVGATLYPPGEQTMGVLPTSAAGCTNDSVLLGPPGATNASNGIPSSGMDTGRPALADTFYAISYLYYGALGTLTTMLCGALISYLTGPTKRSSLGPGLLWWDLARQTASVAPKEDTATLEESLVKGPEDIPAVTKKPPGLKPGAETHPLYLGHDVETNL

[2] = target: T2, human NIS (Homo sapiens, UniProt Q92911)
T2 sequence (Q92911 1-643): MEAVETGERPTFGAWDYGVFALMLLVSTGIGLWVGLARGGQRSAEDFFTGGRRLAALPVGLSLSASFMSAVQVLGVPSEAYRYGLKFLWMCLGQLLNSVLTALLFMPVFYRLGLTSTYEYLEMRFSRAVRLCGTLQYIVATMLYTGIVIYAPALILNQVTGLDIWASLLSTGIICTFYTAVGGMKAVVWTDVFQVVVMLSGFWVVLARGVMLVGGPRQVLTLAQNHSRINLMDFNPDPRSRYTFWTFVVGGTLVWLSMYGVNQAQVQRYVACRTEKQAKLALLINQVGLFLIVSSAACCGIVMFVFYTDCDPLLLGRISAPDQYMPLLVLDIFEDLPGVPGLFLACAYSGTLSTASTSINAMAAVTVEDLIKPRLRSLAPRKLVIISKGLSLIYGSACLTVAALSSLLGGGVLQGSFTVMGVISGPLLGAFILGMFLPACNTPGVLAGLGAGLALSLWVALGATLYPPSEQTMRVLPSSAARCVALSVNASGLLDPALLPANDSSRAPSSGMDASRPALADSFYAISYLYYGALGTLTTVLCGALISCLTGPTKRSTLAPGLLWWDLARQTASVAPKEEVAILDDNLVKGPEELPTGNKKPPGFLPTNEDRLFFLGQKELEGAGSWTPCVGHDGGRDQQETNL

[3] = set-up: method as in PubChem https://pubchem.ncbi.nlm.nih.gov/; conditions: ref PubChem https://pubchem.ncbi.nlm.nih.gov/; cited from earlier work
[4] = set-up: method as in PubChem https://pubchem.ncbi.nlm.nih.gov/; conditions: ref PubChem https://pubchem.ncbi.nlm.nih.gov/; cited from earlier work; remark: listed apart in the source
[5] = target: T2, human NIS; set-up: method as in Dong et al., 2019; conditions: MCF7hNIS; SK; ref Dong et al., 2019; read-out: Data from literature NIS IC20; cited from earlier work
[6] = in vitro; conditions: human
[7] = target: T2, human NIS; assay: Biotransformation (BTS, rat S9)-augmented NIS-inhibition assay, HEK293T NIS02
[8] = target: T2, human NIS; assay: NIS-inhibition assay (iodide uptake, Sandell–Kolthoff reaction) on HEK293T NIS 02; format: cell-based; set-up: host or cells: HEK293T (lentiviral transduction, puromycin selection, GFP sorting; lines NIS 02 and NIS C)
[9] = target: T2, human NIS; assay: NIS-inhibition assay (iodide uptake, Sandell–Kolthoff reaction) on HEK293T NIS C; format: cell-based; set-up: host or cells: HEK293T (lentiviral transduction, puromycin selection, GFP sorting; lines NIS 02 and NIS C)
[10] = target: T2, human NIS; set-up: host or cells: HEK293T (lentiviral transduction, puromycin selection, GFP sorting; lines NIS 02 and NIS C); conditions: hNIS-HEK293T-EPA, RAIU, cited from earlier work; for IC20: read-out: Data from literature NIS IC20; for IC50: read-out: Data from literature NIS IC50
[11] = target: T2, human NIS; set-up: host or cells: HEK293T (lentiviral transduction, puromycin selection, GFP sorting; lines NIS 02 and NIS C); method as in Dong et al., 2019; conditions: hNIS-HEK293T-EPA; SK; ref Dong et al., 2019; cited from earlier work
[12] = target: T1, NIS; conditions: FRTL-5, RAIU, ref Buckalew et al., 2020, cited from earlier work; for IC50: read-out: Data from literature NIS IC50
[13] = ref PubChem https://pubchem.ncbi.nlm.nih.gov/; cited from earlier work
[14] = test system: FRTL-5 cells; assay: Neutral red uptake viability assay, FRTL-5; conditions: for NR IC20 FRTL-5: mean±SD, 2 h exposure
[15] = test system: HEK293T NIS C cells; assay: Neutral red uptake viability assay, HEK293T NIS C; conditions: for NR IC20 HEK293T NISC: mean±SD, 2 h exposure
[16] = test system: HEK293T NIS02 cells; assay: Neutral red uptake viability assay, HEK293T NIS02; conditions: read-out: NR IC20 HEK293T NIS02; viability, neutral red assay; mean±SD; 2 h exposure
[17] = mean ± SD, ≥ 3 independent experiments, 2 h exposure, SK reaction, read-out: NIS IC50 HEK293T NIS 02
[18] = mean ± SD, ≥ 3 independent experiments, 2 h exposure, SK reaction

SMILES: CCCCOC(=O)c1ccccc1C(=O)OCCCC [DBP, Dibutylphthalate]
- IC50 [1]: 92.3 ± 11.8 µM
- IC20 [2]: 5.57 ± 4.6 µM
- effect of fully active BTS (W/S9, W/cof) on NIS inhibition versus control setups [2]: statistically significant reduction in NIS inhibition
- log Kow [3]: 4.5
- Henry‘s law [4]: 1.81x10^-6 atm- m^3/mol
- IC20 [5]: 63.1 µM
- IC20 at 2 h [6]: 42 µM
- increase of IC20 by preincubation in fully active BTS setup compared to the denatured BTS setup ([7]; W/S9, W/cof vs D S9, W/cof): more than ninefold
- IC50 [8, 17]: 51.7 µM and 52 µM
- NIS IC50 HEK293T NIS C [9, 18]: n.e and n.e.
- IC20 ([10]; ref Dong et al., 2019): 26.9 µM
- IC20 ([10]; ref Hallinger et al., 2017): 191 µM
- IC50 ([10]; ref US-EPA, 2024): 26.9 µM
- Data from literature NIS IC50 ([10]; ref Wang et al., 2018): n.e.
- Data from literature NIS IC50 [11]: n.e.

SMILES: CCOc1cc(C(C)(C)C)ccc1C1COC(c2c(F)cccc2F)=N1 (stereo not shown) [ETX, Etoxazole, reference compound]
- effect of fully active BTS (W/S9, W/cof) on NIS inhibition versus control setups [2]: no biotransformation-related effect changes were detected
- IC20 [6]: 28.8 µM
- IC20 ([7]; read-out: NIS inhibition IC20 SM): 0.61 µM
- IC50 ([8]; NIS IC50 HEK293T NIS 02): 7.1 ± 4.3 µM
- IC50 [9]: 11.7 ± 8 µM

- NIS IC50 FRTL-5 [1]: n.e and n.e. / n.e.
- NIS IC50 HEK293T NIS 02 [8, 18]: n.e and n.e./ n.e.
- NIS IC50 HEK293T NIS C [9, 18]: n.e and n.e./ n.e.
SMILES: Cn1cc[nH]c1=S [MMI, Methimazole, reference compound]
- log Kow [3]: -0.34
- Data from literature NIS IC50 [12]: n.e.
- solubility in water [13]: 200 mg/mL (≈ 1750 mM)
- NR IC20 FRTL-5 [14]: n.e. / n.e.
- NR IC20 HEK293T NISC [15]: n.e./ n.e.
- Data from literature NIS IC50 ([10]; ref Buckalew et al., 2020): n.e.
- Data from literature NIS IC50 ([10]; ref Hallinger et al., 2017): n.e.
- Data from literature NIS IC50 ([10]; ref US-EPA, 2024): n.e.
- Data from literature NIS IC50 ([10]; ref Wang et al., 2019): n.e.

SMILES: O=C(O)C(F)(F)C(F)(F)C(F)(F)C(F)(F)C(F)(F)C(F)(F)C(F)(F)F [PFOA, Perfluorooctanoic acid]
- NIS IC50 FRTL-5 [1]: n.e and n.e. / n.e.
- IC50 [12]: 25.1 µM
- solubility in water [13]: 3.3 mg/mL (≈ 7.97 mM)
- NR IC20 FRTL-5 [14]: n.e. / n.e.
- NR IC20 HEK293T NISC [15]: n.e./ n.e.
- NIS IC50 HEK293T NIS 02 [8, 18]: n.e and n.e. / n.e.
- NIS IC50 HEK293T NIS C [9, 18]: n.e and n.e./ n.e.
- IC50 ([10]; ref Buckalew et al., 2020): 75.9 µM
- Data from literature NIS IC50 ([10]; ref US-EPA, 2024): n.e.
- Data from literature NIS IC50 ([10]; ref Wang et al., 2018): n.e.

SMILES: O=S(=O)(O)C(F)(F)C(F)(F)C(F)(F)C(F)(F)C(F)(F)C(F)(F)C(F)(F)C(F)(F)F [PFOS, Perfluorooctane sulfonate]
- IC50 [1]: 9.3 µM and 9.31 µM
- log Kow [3]: -1.08
- Henry‘s law [4]: 4.34x10^-7 atm- m^3/mol
- IC50 [12]: 0.4 µM
- NR IC20 FRTL-5 [14]: n.e.
- NR IC20 HEK293T NISC [15]: n.e. / n.e.
- effect of fully active BTS (W/S9, W/cof) on NIS inhibition versus control setups ([7]; two-way ANOVA, p < 0.05): no significant differences were observed
- IC50 [8, 17]: 30.9 ± 21.7 µM
- NIS IC50 HEK293T NIS C [9, 18]: n.e and n.e. / n.e.
- IC50 ([10]; ref Buckalew et al., 2020): 1.3 µM
- IC50 ([10]; ref US-EPA, 2024): 20.5 µM
- IC50 ([10]; ref Wang et al., 2018): 16.6 µM
- IC50 ([10]; ref Wang et al., 2019): 17 µM

SMILES: CC(C)(c1cc(Br)c(O)c(Br)c1)c1cc(Br)c(O)c(Br)c1 [TBBPA, Tetrabromobisphenol A]
- IC50 [1]: 91.8 ± 10.8 µM
- log Kow [3]: 4.75
- Henry‘s law [4]: 2.0x10^-7 atm- m^3/mol
- IC20 ([14]; read-out: NR IC20 FRTL-5, mean±SD, 2 h exposure): 33.4 µM
- IC20 [16]: 66.8 µM
- IC20 ([15]; read-out: NR IC20 HEK293T NISC, mean±SD, 2 h exposure): 57.6 µM
- IC50 [8, 17]: 30.1 ± 11.8 µM
- IC50 ([9]; mean ± SD, ≥ 3 independent experiments, 2 h exposure, SK reaction, read-out: NIS IC50 HEK293T NIS C): 54 ± 27.1 µM
- IC50 ([10]; ref US-EPA, 2024): 91.1 µM

From publication PMC12198292, “Advancing in vitro assessment of iodide uptake inhibition: integrating a novel biotransformation pretreatment step” (Archives of Toxicology, 2025)
